Measurements reported in patent US4031205A, “Method for treating nervous bladder” (priority 1975, dated 1977).

Experiments:
[1] = tested on: rats of Wistar strain; test: Subacute toxicity test in rats
Experimental: (§4) Ubiquinone 10(CoQ10) was compulsorily and orally administered every day for 5 weeks to each group consisting of 10 male rats and 10 female rats of Wistar strain. The dose was 40, 200, and 1000 mg/Kg/day, respectively. Ubiquinone 10(CoQ10) was used in the form of gum Arabic suspension, while the solution containing gum Arabic alone was used as the control group. Collection of blood and urine samples and autopsies were carried out 5 weeks after the initiation of administration.

[2] = tested on: rats of Wistar strain; conditions: rat, in vivo, po
Experimental: as §4

[3] = tested on: rats of Wistar strain; test: Chronic oral toxicity test
Experimental: Ubiquinone 10(CoQ10) was compulsorily and orally administered to each group consisting of 10 male rats and 10 female rats of Wistar strain for consecutive 26 weeks in a ratio of 6 days a week. The dose was 6, 60 and 600 mg/Kg/day, respectively. ubiquinone 10(CoQ10) was used in the form of gum Arabic suspension, whereas the solution containing gum Arabic alone is used as the control group. Collection of blood and urine samples and autopsies were carried out 26 weeks after the administration.

[4] = tested on: rabbits; test: Subacute oral toxicity test in rabbits
Excerpt: (§1) Ubiquinone 10(CoQ10) was compulsorily and orally administered every day for 23 days to each group consisting of six male rabbits and five female rabbits. […] On the 24th day, blood samples were collected from all the animals, and three males and two females from each group were then selectively autopsied.

[5] = tested on: rats of Wistar strain; test: Acute toxicity test in rats; conditions: for Maximum dose (no case of deaths): single dose, 7 days observation
Excerpt: (§2) In order to evaluate the acute toxicity of a single high dose administration of Ubiquinone 10(CoQ10), male and female rats of Wistar strain and male and female mice of ICR-JCL strain were used, and oral, intramuscular, subcutaneous, and intravenous administrations were studied. For the oral administration of Ubiquinone 10(CoQ10), gum Arabic suspension was used. For the intramuscular, subcutaneous, and intravenous administrations, Ubiquinone 10(CoQ10) is used as its solution in surfactant, hydrogenated castor oil ethylene oxide addition product (HCO-60).
(§3) Observation was carried out for 7 days, by using six males and six females for each dose group.

[6] = tested on: rats; test: Teratogenesis test in rats; assay type: in vivo, rat; conditions: 6, 60, and 600 mg/Kg/day
[7] = tested on: mice; test: Teratogenesis test in mice; assay type: in vivo, mouse; conditions: 6, 60, and 600 mg/Kg/day
[8] = in vivo
Excerpt: as §2, §3
The dose was 40, 200, and 1000 mg/Kg/day, respectively.
as §1

[9] = Clinical test: effectiveness of Ubiquinone 10(CoQ10) for nervous bladder; assay type: in vivo, human; parameters: Pressure curve Volume: unit not given beside the values; Residual urine / Urethral R. (Resistance): unit not given here
Experimental: Six patients compalining of dysuria and incontinentia urinac due to nervous bladder were made sujects. Case 1 was nocturnal enuresis of unknown cause, Cases 2-4 were impairement of root of spinal nerve (nuclear type), and Cases 5 and 6 were spinal impairements (supra nuclear type).
Hard capsules containing 5 mg of Ubiquinone 10(CoQ10) in the present invention were orally administered.
The dose of 1-3 capsules each time was orally administered 3 times a day after meals for consecutive 3-4 weeks as a rule. Depending on cases, 10 mg of Ubiquinone 10(CoQ10) was concurrently injected. The measurement of bladder functions, that is, the measurement of the pressure curve in the bladder, was carried out in accordance with any conventional method. However, the quantitative bladder crystometrographic curve (BR) was obtained by a modified method for the crystometry. More particularly, the curve was prepared by observing the condition of weak autonomic rhythmical contraction of the bladder wall, when the sensitivity and the recording rate of a crystometer were risen after the infusion of a certain amount of the solution.

[10] = Physical and chemical properties: solubility; assay type: physicochemical
Excerpt: Ubiquinone n, for example, Ubiquinone 10(CoQ10), can be mainly obtained synthetically, though it is possible to extract the Ubiquinone from animal organs. Physical and chemical properties of Ubiquinone 10(CoQ10) produced synthetically are as follows.

[11] = tested on: mice of ICR-JCL strain; test: Acute toxicity test in mice; conditions: for Maximum dose (no case of deaths): single dose, 7 days observation
Excerpt: as §2, §3

[12] = 6, 60, 600 mg/Kg/day oral, 26 weeks
[13] = spontaneous pneumonia and aspiration pneumonia due to erroneous administration, group not stated
[14] = 6, 60, 600 mg/Kg/day oral, 23 days
[15] = Case 1, 20 days with 3 capsules
[16] = Case 1, 20 days with 3 capsules, After (Before: +)
[17] = Case 2, 30 days with 3 OR 20 days with 4 capsules
[18] = Case 3, 30 days with 1 OR 3 capsules
[19] = Case 4, 30 days with 3 capsules
[20] = Case 5, 50 days with 1 capsule, After (Before: ++)
[21] = Case 6, 30 days with 3 capsules

COC1=C(OC)C(=O)C(CC=C(C)CCC=C(C)CCC=C(C)CCC=C(C)CCC=C(C)CCC=C(C)CCC=C(C)CCC=C(C)CCC=C(C)CCC=C(C)C)=C(C)C1=O [Ubiquinone 10(CoQ10)]
dead animals during the experiment ([1]; spontaneous pneumonia and aspiration pneumonia due to error of administration, group not stated): 4
toxicity (overall) ([1]; subacute oral, 5 weeks): there was not recognized the toxicity
macroscopical and histological observation [2]: abnormality was not recognized
biochemical tests of blood and urine vs control [3, 12]: No significant change
body weight [3, 12]: increased as same as that of the control group
weight of organ [3, 12]: no significant increase and decrease
general condition vs control ([3]; 6, 60, 600 mg/Kg/day oral, 6 days a week, 26 weeks): no difference
toxicity (overall) ([3]; chronic oral, 26 weeks): no toxicity was observed
macroscopical and histological observation vs control ([3]; hemoxylin.Eosine staining and liver fat staining, 26 weeks): abnormalities were not recognized
leukocytal percentages ([3]; some increase and decrease, not dose dependent, 26 weeks): within extent of physiological fluctuations
animals died, females [3, 13]: 3
animals died, males [3, 13]: 11
general condition and increase of body weight vs control [4, 14]: no difference
weight of each organ [4, 14]: no effect
hematological test and biochemical test of blood ([4]; 6, 60, 600 mg/Kg/day oral, 23 days, 24th day): Abnormal findings were not obtained
macroscopical and histological observation ([4]; hematoxylin.Eosine staining and liver fat staining, 23 days oral): abnormalities were not recognized
electron-microscopic observation of liver (minute structure) ([4]; seventh, 14th and 24th days): there were not recognized abnormal findings
toxicity (overall) ([4]; subacute oral, 23 days): there were not recognized the findings wherein the toxicity of Ubiquinone 10(CoQ10) will be suggested
general condition, body weight, food intake and autopsy findings ([5]; rat, in vivo): no change was recognized
deaths ([5]; rats, at the maximum dose in each administration route): no case of deaths
Maximum dose (no case of deaths) ([5]; rats, intramuscular): 500 mg/kg
Maximum dose (no case of deaths) ([5]; rats, intravenous): 250 mg/kg
Maximum dose (no case of deaths) ([5]; rats, oral): 4000 mg/kg
Maximum dose (no case of deaths) ([5]; rats, subcutaneous): 500 mg/kg
LD50 ([5]; rats, maximum doses of Table 1): far higher than the maximum dose mentioned above
adverse effects in mothers, fetuses, and newborns [6]: no adverse effects were noted
adverse effects in mothers, fetuses, and newborns [7]: no adverse effects were noted
overall safety [8]: a very safe drug, without side-effects
Residual urine ([9]; Case 1 (nocturnal enuresis), 20 days with 3 capsules, After (Before: 35)): 5
Effectiveness: Volume [9, 15]: increased
Evaluation [9, 15]: Effective
Urethral R. (Resistance) ([9]; Case 1, 20 days with 3 capsules, After (Before: 110)): 100
Pressure curve Volume ([9]; Case 1, 20 days with 3 capsules, After (Before: 295)): 340
Basal Pressure BR [9, 16]: Normal
Basal Pressure SR [9, 16]: Normal
Residual urine ([9]; Case 2 (spina bifida), 30 days with 3 capsules OR 20 days with 4 capsules, After (Before: 0)): 0
Effectiveness: Volume [9, 17]: increased
Evaluation [9, 17]: Unchanged
Urethral R. (Resistance) ([9]; Case 2, 30 days with 3 OR 20 days with 4 capsules, After (Before: 30)): 33
Pressure curve Volume ([9]; Case 2, 30 days with 3 OR 20 days with 4 capsules, After (Before: 90)): 110
Residual urine ([9]; Case 3 (spina bifida), 30 days with 1 capsule OR 30 days with 3 capsules, After (Before: 75)): 65
Effectiveness: Curve [9, 18]: improved
Effectiveness: Residual urine [9, 18]: decreased
Effectiveness: Volume [9, 18]: increased
Evaluation [9, 18]: Effective
Pressure curve Volume ([9]; Case 3, 30 days with 1 OR 3 capsules, After (Before: 150)): 200
Residual urine ([9]; Case 4 (spina bifida), 30 days with 3 capsules, After (Before: 95)): 70
Effectiveness: Anischuria [9, 19]: improved
Effectiveness: BR [9, 19]: appeared
Effectiveness: Volume [9, 19]: increased
Urethral R. (Resistance) ([9]; Case 4, 30 days with 3 capsules, After (Before: 45)): 49
Pressure curve Volume ([9]; Case 4, 30 days with 3 capsules, After (Before: 130)): 345
Basal Pressure BR ([9]; Case 4, 30 days with 3 capsules, After (Before: ±)): Normal
Residual urine ([9]; Case 5 (paraplegia), 50 days with 1 capsule, After (Before: 20)): 0
Effectiveness: BR SR ([9]; Case 5, 50 days with 1 capsule): normalized
Effectiveness: Curve ([9]; Case 5, 50 days with 1 capsule): improved
Urethral R. (Resistance) ([9]; Case 5, 50 days with 1 capsule, After (Before: 76)): 73
Pressure curve Volume ([9]; Case 5, 50 days with 1 capsule, After (Before: 240)): 260
Basal Pressure BR [9, 20]: Normal
Basal Pressure SR [9, 20]: Normal
Pressure curve Volume ([9]; Case 6 (Myelitis Adhesiva), 30 days with 3 capsules, After (Before: 150)): 150
Effectiveness: Curve [9, 21]: improved
Effectiveness: SR [9, 21]: improved
Pressure curve Type ([9]; Case 6, 30 days with 3 capsules, After (Before: Reflex)): Reflex
effective results and markedly effective results, number of cases ([9]; among the 6 cases): 5 cases
solubility ([10]; acetone): soluble
solubility ([10]; benzene): easily soluble
solubility ([10]; carbon tetrachloride): easily soluble
solubility ([10]; chloroform): easily soluble
solubility ([10]; ethanol): insoluble
solubility ([10]; ether): soluble
solubility ([10]; methanol): hardly soluble
solubility ([10]; water): hardly soluble
deaths ([11]; mice, at the maximum dose in each administration route): no case of deaths
Maximum dose (no case of deaths) ([11]; mice, intramuscular): 500 mg/kg
Maximum dose (no case of deaths) ([11]; mice, intravenous): 250 mg/kg
Maximum dose (no case of deaths) ([11]; mice, oral): 4000 mg/kg
Maximum dose (no case of deaths) ([11]; mice, subcutaneous): 500 mg/kg
LD50 ([11]; mice, maximum doses of Table 1): far higher than the maximum dose mentioned above
general condition, body weight, food intake and autopsy findings ([11]; mouse, in vivo): no change was recognized
